Laboratory results: patent US10494360B2, “Inhibitors of indoleamine 2,3-dioxygenase” (NETHERLANDS TRANSLATIONAL RESEARCH CENTER B.V., priority 2016, dated 2019)
Several values for one entry are separate records, joined by “and”; a condition that tells them apart may be missing. Equal values may be shown once.

Target: IDO1 (Homo sapiens, UniProt P14902)
Experiment: Biochemical IDO1 assay (NFK GreenScreen)
Set-up: Recombinant full-length IDO1 (Seegers, N., et al.) and all other assay components were diluted in IDO1 reaction buffer; made in house
Conditions: for relative activity of separated isomers: less active / most active isomer of the pair, assay not given; for IC50: recombinant full-length IDO1 25 nM, L-tryptophan 100 μM, NFK Green detection, read-out: IC50, inhibitory potency on IDO1
Procedure: Inhibition of IDO1 activity can be measured by determining the enzymatic conversion of L-tryptophan into N-formylkynurenine (NFK) in a reaction mixture containing IDO1 and test compound. The formation of NFK can be detected directly by, for instance, high-performance liquid chromatography (HPLC) methods, or by intrinsic fluorescence.
Compounds were serially diluted in dimethylsulfoxide (DMSO) and finally in IDO1 reaction buffer, consisting of 50 mM NaH2PO4, pH7.0, supplemented with 0.05% Tween-20 (cat. No. P7949; Sigma Aldrich) and 1% glycerol. Recombinant full-length IDO1 (Seegers, N., et al.) and all other assay components were diluted in IDO1 reaction buffer. […] Subsequently, 10 μl of 0.4 mM of the substrate L-tryptophan was added, i.e., the final concentration of L-tryptophan was 100 μM. The DMSO concentration in the assay was 0.3%. […] Incubation was continued for 60 min at room temperature. Then, 10 μl of NFK Green™ (NTRC, Oss, The Netherlands) was added, the plate was sealed, and the reaction was developed for 3 hours at 37° C. To determine the production of N-formyl kynurenine (NFK), the seal was removed and fluorescence was read on an EnVision multimode reader (Perkin Elmer, Waltham, Mass., USA). IC50 were calculated using XLfit™ software (ID Business Solutions, Ltd., Surrey, U.K.).

IDO1, sequence (P14902 whole entry, species assumed): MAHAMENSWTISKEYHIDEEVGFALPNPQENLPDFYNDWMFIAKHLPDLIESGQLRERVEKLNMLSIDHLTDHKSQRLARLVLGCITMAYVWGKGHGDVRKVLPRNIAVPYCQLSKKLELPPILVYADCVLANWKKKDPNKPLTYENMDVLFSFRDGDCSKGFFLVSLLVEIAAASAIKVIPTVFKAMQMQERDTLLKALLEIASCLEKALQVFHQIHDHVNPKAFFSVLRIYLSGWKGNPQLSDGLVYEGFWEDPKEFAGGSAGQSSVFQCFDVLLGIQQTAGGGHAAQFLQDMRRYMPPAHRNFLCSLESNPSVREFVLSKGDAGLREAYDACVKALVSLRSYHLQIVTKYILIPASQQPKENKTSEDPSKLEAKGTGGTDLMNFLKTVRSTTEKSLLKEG

O=C1CN(Cc2c(F)cccc2F)C(c2cccc(Br)c2)N1O (single isomer, unassigned) [Example 145a, 2-(3-bromophenyl)-1-[(2,6-difluorophenyl)methyl]-3-hydroxy-imidazolidin-4-one]
relative activity of separated isomers: less active isomer | IC50: ≤ 1 µM

O=C1CN(C(=O)c2ccc(C(F)(F)F)cc2F)C(c2cccc(Br)c2)N1O (stereo not shown) [Example 38, 2-(3-Bromophenyl)-1-[2-fluoro-4-(trifluoromethyl)benzoyl]-3-hydroxy-imidazolidin-4-one]
IC50: ≤ 5 µM and 1 to 5 µM

O=C1CN(C(=O)c2c(F)cc(-c3ccc(F)s3)cc2F)C(c2cccc(Br)c2)N1O (stereo not shown) [Example 121, 2-(3-Bromophenyl)-1-[2,6-difluoro-4-(5-fluoro-2-thienyl)benzoyl]-3-hydroxy-imidazolidin-4-one]
IC50: ≤ 5 µM and 1 to 5 µM

COc1ccc(C(=O)N2CC(=O)N(O)C2c2cccc(Br)c2)cc1 (stereo not shown) [Example 18, 2-(3-Bromophenyl)-3-hydroxy-1-(4-methoxybenzoyl)imidazolidin-4-one]
IC50: ≤ 5 µM and 1 to 5 µM

O=C1CN(C(=O)c2ccc(F)cc2)C(c2ccc(F)c(Br)c2)N1O (stereo not shown) [Example 40, 2-(3-Bromo-4-fluoro-phenyl)-1-(4-fluorobenzoyl)-3-hydroxy-imidazolidin-4-one]
IC50: ≤ 5 µM and 1 to 5 µM

O=C1CN(C(=O)c2ccccc2)C(c2cccc(Br)c2)N1O (single isomer, unassigned) [Example 63b, 1-benzoyl-2-(3-bromophenyl)-3-hydroxy-imidazolidin-4-one]
IC50: ≤ 5 µM and 1 to 5 µM

O=C1CN(Cc2ccccc2F)C(c2cccc(I)c2)N1O (single isomer, unassigned) [Example 146a, 1-[(2-fluorophenyl)methyl]-3-hydroxy-2-(3-iodophenyl)imidazolidin-4-one]
relative activity of separated isomers: less active isomer | IC50: ≤ 1 µM

O=C1CN(C(=O)c2cccc(F)c2)C(c2cccc(Br)c2)N1O (stereo not shown) [Example 36, 2-(3-Bromophenyl)-1-(3-fluorobenzoyl)-3-hydroxy-imidazolidin-4-one]
IC50: ≤ 1 µM

CS(=O)(=O)c1ccc(-c2ccc(C(=O)N3CC(=O)N(O)C3c3cccc(Br)c3)cc2)cc1 (stereo not shown) [Example 97, 2-(3-Bromophenyl)-3-hydroxy-1-[4-(4-methylsulfonylphenyl)benzoyl]imidazolidin-4-one]
IC50: ≤ 5 µM and 1 to 5 µM

O=C1CN(C(=O)c2c(F)cccc2F)C(c2ccnc(Br)c2)N1O (stereo not shown) [Example 65, 2-(2-Bromo-4-pyridyl)-1-(2,6-difluorobenzoyl)-3-hydroxy-imidazolidin-4-one]
IC50: ≤ 5 µM and 1 to 5 µM

O=C1CN(C(=O)c2ccccc2)C(c2ccc(F)c(Cl)c2)N1O (stereo not shown) [Example 50, 1-Benzoyl-2-(3-chloro-4-fluoro-phenyl)-3-hydroxy-imidazolidin-4-one]
IC50: ≤ 5 µM and 1 to 5 µM

CC(=O)Nc1ccc(F)c(C(=O)N2CC(=O)N(O)C2c2cccc(Br)c2)c1F (stereo not shown) [Example 77, N-[3-[2-(3-bromophenyl)-3-hydroxy-4-oxo-imidazolidine-1-carbonyl]-2,4-difluoro-phenyl]acetamide]
IC50: ≤ 1 µM

O=C1CN(C(=O)c2c(F)ccc([N+](=O)[O-])c2F)C(c2cccc(Br)c2)N1O (stereo not shown) [Example 75, 2-(3-Bromophenyl)-1-(2,6-difluoro-3-nitro-benzoyl)-3-hydroxy-imidazolidin-4-one]
IC50: ≤ 1 µM

CC(c1c(F)cccc1F)N1CC(=O)N(O)C1c1cccc(Br)c1 (stereo not shown) [Example 141a, 2-(3-Bromophenyl)-1-[1-(2,6-difluorophenyl)ethyl]-3-hydroxy-imidazolidin-4-one]
relative activity of separated isomers: less active isomer

O=C1CN(C(=O)c2ccccc2)C(c2cccc(Br)c2)N1O (single isomer, unassigned) [Example 64, 1-benzoyl-2-(3-bromophenyl)-3-hydroxy-imidazolidin-4-one]
IC50: ≤ 5 µM and 1 to 5 µM

NCC#Cc1cc(F)c(C(=O)N2CC(=O)N(O)C2c2cccc(Br)c2)c(F)c1 (stereo not shown) [Example 109, 1-[4-(3-Aminoprop-1-ynyl)-2,6-difluoro-benzoyl]-2-(3-bromophenyl)-3-hydroxy-imidazolidin-4-one]
IC50: ≤ 1 µM

NS(=O)(=O)NCCCc1cc(F)c(C(=O)N2CC(=O)N(O)C2c2cccc(Br)c2)c(F)c1 (stereo not shown) [Example 132, 2-(3-Bromophenyl)-1-[2,6-difluoro-4-[3-(sulfamoylamino)propyl]benzoyl]-3-hydroxy-4-oxo-imidazolidine]
IC50: ≤ 1 µM

CN(CCO)c1cc(F)c(C(=O)N2CC(=O)N(O)C2c2cccc(Br)c2)c(F)c1 (stereo not shown) [Example 135, 2-(3-Bromophenyl)-1-[2,6-difluoro-4-[2-hydroxyethyl(methyl)amino]benzoyl]-3-hydroxy-imidazolidin-4-one]
IC50: ≤ 5 µM and 1 to 5 µM

O=C1CN(C(=O)c2ccccc2F)C(c2ccc(Cl)c(C(F)(F)F)c2)N1O (stereo not shown) [Example 8, 2-[4-Chloro-3-(trifluoromethyl)phenyl]-1-(2-fluorobenzoyl)-3-hydroxy-imidazolidin-4-one]
IC50: ≤ 5 µM and 1 to 5 µM

O=C1CN(Cc2c(F)cccc2F)C(c2cccc(Br)c2)N1O (single isomer, unassigned) [Example 145b, 2-(3-bromophenyl)-1-[(2,6-difluorophenyl)methyl]-3-hydroxy-imidazolidin-4-one]
relative activity of separated isomers: most active isomer | IC50: ≤ 1 µM

O=C1CN(C(=O)c2ncccc2F)C(c2cccc(Br)c2)N1O (stereo not shown) [Example 89, 2-(3-Bromophenyl)-1-(3-fluoropyridine-2-carbonyl)-3-hydroxy-imidazolidin-4-one]
IC50: ≤ 5 µM and 1 to 5 µM

O=C1CN(C(=O)c2c(F)cc(C#CC3CC3)cc2F)C(c2cccc(Br)c2)N1O (single isomer, unassigned) [Example 144a, 2-(3-bromophenyl)-1-[4-(2-cyclopropylethynyl)-2,6-difluoro-benzoyl]-3-hydroxy-imidazolidin-4-one]
relative activity of separated isomers: less active isomer | IC50: ≤ 1 µM

O=C1CN(C(=O)c2ccc(F)cc2)C(c2cccc(Br)c2)N1O (stereo not shown) [Example 29, 2-(3-Bromophenyl)-1-(4-fluorobenzoyl)-3-hydroxy-imidazolidin-4-one]
IC50: ≤ 5 µM and 1 to 5 µM

O=C1CN(C(=O)c2c(F)cccc2Cl)C(c2cccc(Cl)c2)N1O (stereo not shown) [Example 14, 1-(2-Chloro-6-fluoro-benzoyl)-2-(3-chlorophenyl)-3-hydroxy-imidazolidin-4-one]
IC50: ≤ 5 µM and 1 to 5 µM

O=C1CN(C(=O)c2ccccc2Br)C(c2cccc(Br)c2)N1O (stereo not shown) [Example 24, 1-(2-Bromobenzoyl)-2-(3-bromophenyl)-3-hydroxy-imidazolidin-4-one]
IC50: ≤ 5 µM and 1 to 5 µM

O=C1CN(C(=O)c2ccc(F)cc2Cl)C(c2cccc(Br)c2)N1O (stereo not shown) [Example 30, 2-(3-Bromophenyl)-1-(2-chloro-4-fluoro-benzoyl)-3-hydroxy-imidazolidin-4-one]
IC50: ≤ 5 µM and 1 to 5 µM

CS(=O)(=O)Nc1ccc(F)c(C(=O)N2CC(=O)N(O)C2c2cccc(Br)c2)c1F (stereo not shown) [Example 78, N-[3-[2-(3-bromophenyl)-3-hydroxy-4-oxo-imidazolidine-1-carbonyl]-2,4-difluoro-phenyl]methanesulfonamide]
IC50: ≤ 5 µM and 1 to 5 µM

O=C1CN(C(=O)c2c(F)cc(CCC3CCCCC3)cc2F)C(c2cccc(Br)c2)N1O (stereo not shown) [Example 131, 2-(3-Bromophenyl)-1-[4-(2-cyclohexylethyl)-2,6-difluoro-benzoyl]-3-hydroxy-imidazolidin-4-one]
IC50: ≤ 5 µM and 1 to 5 µM

CC(C)(C#Cc1cc(F)c(C(=O)N2CC(=O)N(O)C2c2cccc(Br)c2)c(F)c1)NS(N)(=O)=O (stereo not shown) [Example 128, 2-(3-Bromophenyl)-1-[2,6-difluoro-4-[3-methyl-3-(sulfamoylamino)but-1-ynyl]benzoyl]-3-hydroxy-4-oxo-imidazolidine]
IC50: ≤ 1 µM

O=C1CN(C(=O)c2c(F)cccc2F)C(c2cccc(Br)c2)N1O (single isomer, unassigned) [Example 142b, 2-(3-bromophenyl)-1-(2,6-difluorobenzoyl)-3-hydroxy-imidazolidin-4-one]
relative activity of separated isomers: most active isomer | IC50: ≤ 1 µM

COc1ccc(C(=O)N2CC(=O)N(O)C2c2ccc(F)c(Br)c2)cc1 (stereo not shown) [Example 47, 2-(3-Bromo-4-fluoro-phenyl)-3-hydroxy-1-(4-methoxybenzoyl)imidazolidin-4-one]
IC50: ≤ 5 µM and 1 to 5 µM

O=C1CN(C(=O)c2c(F)cccc2F)C(c2cccc(Br)c2F)N1O (stereo not shown) [Example 70, 2-(3-Bromo-2-fluoro-phenyl)-1-(2,6-difluorobenzoyl)-3-hydroxy-imidazolidin-4-one]
IC50: ≤ 5 µM and 1 to 5 µM

O=C1CN(C(=O)c2ccc(Cc3ccccc3)cc2)C(c2cccc(Br)c2)N1O (stereo not shown) [Example 74, 1-(4-Benzylbenzoyl)-2-(3-bromophenyl)-3-hydroxy-imidazolidin-4-one]
IC50: ≤ 5 µM and 1 to 5 µM

O=C1CN(C(=O)c2c(F)cccc2Cl)C(c2ccc(F)c(Br)c2)N1O (single isomer, unassigned) [Example 143a, 2-(3-bromo-4-fluoro-phenyl)-1-(2-chloro-6-fluoro-benzoyl)-3-hydroxy-imidazolidin-4-one]
relative activity of separated isomers: less active isomer | IC50: ≤ 5 µM and 1 to 5 µM
